According to patent US11795177B2, “Substituted quinoline analogs as aldehyde dehydrogenase 1A1 (ALDH1A1) inhibitors” (THE UNITED STATES OF AMERICA, AS REPRESENTED BY THE …, priority 2017, dated 2023):
pIC50: −log10 of the molar value. Counter-ions that a name gives are not always drawn.

What was measured:
ALDH1A1 enzyme = molecular target: T1, ALDH1A1 enzyme (Homo sapiens, UniProt P00352); test: ALDH1A1 enzymatic assay (in vitro); format: biochemical; details: ALDH1A1 enzyme 20 nM, NAD+ 1 mM, propionaldehyde 80 μM; read-out: ALDH1A1 IC50
T1 sequence (P00352 1-501): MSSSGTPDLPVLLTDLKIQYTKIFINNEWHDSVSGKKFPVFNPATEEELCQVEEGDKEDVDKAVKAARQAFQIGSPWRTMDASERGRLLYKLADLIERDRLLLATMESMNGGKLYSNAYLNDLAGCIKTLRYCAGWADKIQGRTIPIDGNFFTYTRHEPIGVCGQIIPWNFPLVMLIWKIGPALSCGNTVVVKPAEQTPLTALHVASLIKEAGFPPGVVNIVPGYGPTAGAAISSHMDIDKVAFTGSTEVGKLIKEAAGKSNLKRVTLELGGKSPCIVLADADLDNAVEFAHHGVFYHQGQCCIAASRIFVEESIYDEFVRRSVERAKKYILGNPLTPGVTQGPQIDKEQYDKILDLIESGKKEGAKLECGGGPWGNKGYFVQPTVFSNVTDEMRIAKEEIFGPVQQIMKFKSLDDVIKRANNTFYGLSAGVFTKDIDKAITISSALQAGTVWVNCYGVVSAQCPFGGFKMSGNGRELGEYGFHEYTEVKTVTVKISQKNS
Protocol: Example 358. ALDH1A1 Enzymatic Assay (In Vitro Assay)
3 μL of ALDH1A1 enzyme (final concentration 20 nM) or assay buffer (100 mM HEPES pH 7.5 with 0.01% Tween 20) were dispensed into a 1,536-well solid-bottom black plate (Greiner Bio One, Monroe, N.C.) followed by pin-tool transfer (23 nL) of candidate inhibitors (final concentration range 968 pM to 57.2 μM) and control (Bay 11-7085, final concentration range 1.31 nM to 2.86 μM). Samples were incubated (RT, protected from light) for 15 minutes followed by a 1 μL substrate addition of NAD^+ and Propionaldehyde (final concentrations of 1 mM and 80 μM, respectively). Plates were centrifuged at 1,000 rpm for 15 seconds, then read in kinetic mode on a ViewLux High-throughput CCD imager (Perkin-Elmer) equipped with standard UV fluorescence optics (340 nm excitation, 450 nm emission) for 10 minutes. The change in fluorescence intensity over the 10-minute reaction period was normalized against no-inhibitor and no-enzyme controls and the resulting percent inhibition data were fitted for biological activity.

MIA PaCa-2 cells = test: MIA PaCa2 cell-based assay (1,536-well high-content imaging ALDEFLUOR assay); set-up: species or system human; details: Homo sapiens, 0.5 h, ALDEFLUOR BAAA substrate 500 nM, 30 minutes
In short: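 MIA PaCa-2 cells (1,000/well), plated overnight, given BAAA substrate (500 nM) plus Hoechst 33342 (0.5 nM), then compound (16-point, 1.4 nM–47.8 μM final; 0.5% DMSO). After 30 min at 37° C, ALDH activity imaged by high-content microscopy as BAA-retaining (FITC) cells versus Hoechst-stained nuclei.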

Compound	pIC50 (ALDH1A1 enzyme)	pIC50 (MIA PaCa-2 cells)
CCOC(=O)N1CCN(C(=O)c2cnc3ccc(OC)cc3c2N2CCC3(CC2)OCCO3)CC1 [Example 40, Ethyl 4-(6-methoxy-4-(1,4-dioxa-8-azaspiro[4.5]decan-8-yl)quinoline-3-carbonyl)piperazine-1-carboxylate]	> 6.30	< 5.00
COc1c(F)cc2c(N3CCC4(CC3)OCCO4)c(C(=O)N3CCN(S(C)(=O)=O)CC3)cnc2c1F [Example 133, (6,8-difluoro-7-methoxy-4-(1,4-dioxa-8-azaspiro[4.5]decan-8-yl)quinolin-3-yl)(4-(methylsulfonyl)piperazin-1-yl)methanone]	> 6.30	5.00 to 6.00
CCN(CC)C(=O)N1CCN(C(=O)c2cnc3cc(F)c(F)cc3c2N2CCC3(CC2)OCCO3)CC1 [Example 169, 4-(6,7-difluoro-4-(1,4-dioxa-8-azasprio[4.5]decan-8-yl)quinoline-3-carbonyl)-N,N-diethylpiperazine-1-carboxamide]	> 6.30	5.00 to 6.00
COc1cc2ncc(C(=O)N3CCN(C(=O)C(C)C)CC3)c(N3CCC(C)(C#N)CC3)c2cc1OC [Example 111, 1-(3-(4-isobutyrylpiperazine-1-carbonyl)-6,7-dimethoxyquinolin-4-yl)-4-methylpiperidine-4-carbonitrile]	> 6.30	5.00 to 6.00
CN(C)S(=O)(=O)N1CCN(C(=O)c2cnc3ccsc3c2N2CCC(C#N)(c3ccccc3)CC2)CC1 [Example 287, 4-(7-(4-cyano-4-phenylpiperidin-1-yl)thieno[3,2-b]pyridine-6-carbonyl)-N,N-dimethylpiperazine-1-sulfonamide]	> 6.30	> 6.30
COc1ccc2ncc(C(=O)NC3CCN(C)CC3)c(N3CCC4(CC3)OCCO4)c2c1 [Example 16, 6-methoxy-N-(1-methylpiperidin-4-yl)-4-(1,4-dioxa-8-azaspiro[4.5]decan-8-yl)quinoline-3-carboxamide, TFA]	5.00 to 6.00	
C[C@@H]1CN(c2c(C(=O)N3CCN(C(=O)C4CC4)CC3)cnc3ccc(F)cc23)C[C@H](C)O1 [Example 60, (4-(cyclopropanecarbonyl)piperazin-1-yl)(44(2S*,6R*)-2,6-dimethylmorpholino)-6-fluoroquinolin-3-yl)methanone]	< 5.00	
COc1ccc2ncc(C(=O)N3CCN(C(=O)C4CC4)CC3)c(NC3CCN(C)CC3)c2c1 [Example 21, (4-(cyclopropanecarbonyl)piperazin-1-yl)(6-methoxy-4-((1-methylpiperidin-4-yl)amino)quinolin-3-yl)methanone, TFA]	< 5.00	
COc1ccc2ncc(C(=O)N3CCN(C(=O)C4CC4)CC3)c(-c3cnn(C)c3)c2c1 [Example 41, (4-(cyclopropanecarbonyl)piperazin-1-yl)(6-methoxy-4-(1-methyl-1H-pyrazol-4-yl)quinolin-3-yl)methanone]	< 5.00	
COc1ccc2ncc(C(=O)N3CCN(C(=O)C4CC4)CC3)c(-n3cc(C)cn3)c2c1 [Example 35, (4-(cyclopropanecarbonyl)piperazin-1-yl)(6-methoxy-4-(4-methyl-1H-pyrazol-1-yl)quinolin-3-yl)methanone]	< 5.00	
COc1ccc2ncc(C(=O)N3CCN(C(=O)C4CC4)CC3)c(NC3CCC3)c2c1 [Example 22, (4-(cyclobutylamino)-6-methoxyquinolin-3-yl)(4-(cyclopropanecarbonyl)piperazin-1-yl)methanone, TFA]	< 5.00	
COc1ccc2ncc(C(=O)N3CCN(C(=O)C4CC4)CC3)c(N3CCN(c4ccncc4)CC3)c2c1 [Example 20, (4-(cyclopropanecarbonyl)piperazin-1-yl)(6-methoxy-4-(4-(pyridin-4-yl)piperazin-1-yl)quinolin-3-yl)methanone, TFA]	< 5.00	
CS(=O)(=O)N1CCN(C(=O)c2cnc3ccc(F)cc3c2-c2ccc(C3(C#N)CCC3)cc2)CC1 [Cpd. 308, 1-(4-(6-fluoro-3-(4-(methylsulfonyl)piperazine-1-carbonyl)quinolin-4-yl)phenyl)cyclobutanecarbonitrile]		> 6.30
CN(C)S(=O)(=O)N1CCN(C(=O)c2cnc3ccc(F)cc3c2N2CCC(C#N)(c3ccccc3)CC2)CC1 [Example 270, 4-(4-(4-cyano-4-phenylpiperidin-1-yl)-6-fluoroquinoline-3-carbonyl)-N,N-dimethylpiperazine-1-sulfonamide]		> 6.30
N#CC1(CC2CC2)CCN(c2c(C(=O)N3CCN(C(=O)C4CC4)CC3)cnc3ccc(F)cc23)CC1 [Example 242, 1-(3-(4-(cyclopropanecarbonyl)piperazine-1-carbonyl)-6-fluoroquinolin-4-yl)-4-(cyclopropylmethyl)piperidine-4-carbonitrile]		6.00 to 6.30
N#CC1(c2ccccc2)CCN(c2c(C(=O)N3CCN(C(=O)C4CC4)CC3)cnc3ccsc23)CC1 [Example 282, 1-(6-(4-(cyclopropanecarbonyl)piperazine-1-carbonyl)thieno[3,2-b]pyridin-7-yl)-4-phenylpiperidine-4-carbonitrile]		> 6.30
CS(=O)(=O)N1CCN(C(=O)c2cnc3ccc(F)cc3c2N2CCC(C#N)(c3ccc(Cl)cc3)CC2)CC1 [Example 275, 4-(4-chlorophenyl)-1-(6-fluoro-3-(4-(methylsulfonyl)piperazine-1-carbonyl)quinolin-4-yl)piperidine-4-carbonitrile]		> 6.30
O=C(c1cnc2ccc(F)cc2c1N1CCC2(CCCCC2)C1)N1CCN(C(=O)C2CC2)CC1 [Example 79, (4-(cyclopropanecarbonyl)piperazin-1-yl)(6-fluoro-4-(2-azaspiro[4.5]decan-2-yl)quinolin-3-yl)methanone]		< 5.00
COc1ccc2c(-c3ccc(C4(C#N)CC4)cc3)c(C(=O)N3CCN(S(C)(=O)=O)CC3)cnc2c1 [Cpd. 322, 1-(4-(7-methoxy-3-(4-(methylsulfonyl)piperazine-1-carbonyl)quinolin-4-yl)phenyl)cyclopropane-1-carbonitrile]		> 6.30
O=C(c1cnc2ccc(F)cc2c1N1CC2CCC(C2)C1)N1CCN(C(=O)C2CC2)CC1 [Example 82, (4-(3-azabicyclo[3.2.1]octan-3-yl)-6-fluoroquinolin-3-yl)(4-(cyclopropanecarbonyl)piperazin-1-yl)methanone]		< 5.00
COc1ccc2ncc(C(=O)N3CCN(C(=O)C4CC4)CC3)c(N3CCC4(CC3)OCCO4)c2c1 [Example 1, (4-(cyclopropanecarbonyl)piperazin-1-yl)(6-methoxy-4-(1,4-dioxa-8-azaspiro[4.5]decan-8-yl)quinolin-3-yl)methanone, TFA]		5.00 to 6.00
CS(=O)(=O)N1CCN(c2c(C(=O)N3CCN(C(=O)C4CC4)CC3)cnc3ccc(F)cc23)CC1 [Cpd. 303, (4-(cyclopropanecarbonyl)piperazin-1-yl)(6-fluoro-4-(4-(methylsulfonyl)piperazin-1-yl)quinolin-3-yl)methanone]		5.00 to 6.00
CC(C)(C)c1ccc(-c2c(C(=O)N3CCN(S(C)(=O)=O)CC3)cnc3ccc(F)cc23)cc1 [Cpd. 306, (4-(4-(tert-butyl)phenyl)-6-fluoroquinolin-3-yl)(4-(methylsulfonyl)piperazin-1-yl)methanone]		> 6.30
COc1ccc2ncc(C(=O)N3CCN(C(=O)C4CC4)CC3)c(N3C[C@@H](C)O[C@@H](C)C3)c2c1 [Example 34, (4-(cyclopropanecarbonyl)piperazin-1-yl)(44(2S*,6R*)-2,6-dimethylmorpholino)-6-methoxyquinolin-3-yl)methanone]	< 5.00	
